US20070142227A1, “Systemic inducer composition for plants” (priority 2003, published 2007)

What was measured:
early & late blight = assay type: in vivo; conditions: potatoes 4 times during season, foliar; chemical compound 25 grams, extract 5 grams
fire blight [1] = experiment: Specific microorganism extracts and chemical compounds, apple fire blight burn (Table II); assay type: in vivo, apples
infection of fruits = assay type: in vivo; conditions: blueberry every 15 days, foliar; chemical compound 25 grams, extract 5 grams
mildew = experiment: Specific microorganism extracts and chemical compounds, grape mildew (Table II); assay type: in vivo, grapes
[2] = system: infected leaves and fruits; assay type: in vivo; conditions: strawberry every 10 days, foliar; chemical compound 25 grams, extract 5 grams
leaf infection = assay type: in vivo, tomato; conditions: tomatoes every week, foliar; chemical compound 25 grams, extract 5 grams
infection of leaves = assay type: in vivo; conditions: lettuce every 10 days, foliar; chemical compound 25 grams, extract 5 grams
sigatoka = experiment: Specific microorganism extracts and chemical compounds, banana sigatoka (Table II); assay type: in vivo
nematode = experiment: Resistance induction in strawberry plant, root infection (Table I A); conditions: in vivo
Foliar Infections = assay type: in vivo; conditions: strawberry plant, chemical compound 1.5 kg per acre, extract 5 grams per acre, once a week
Black Sigatoka [3] = experiment: Resistance induction in bananas against Black Sigatoka (Table I D); design: species or system banana; conditions: in vivo
nematodes [4] = experiment: Resistance induction in tomato plants, nematodes (Table I C); conditions: in vivo
Nematodes [5] = experiment: Resistance induction in bananas against nematodes (Table I D); design: species or system banana; conditions: in vivo
phytopthora [6] = assay type: in vivo; conditions: tomato plants, chemical compound 1.5 kg per acre, extract 5 grams per acre, every 10 days
Fire Blight [7] = experiment: Resistance induction in apple trees against fire blight (Table I B); conditions: in vivo
foliar infection = assay type: in vivo; conditions: tomato plants, chemical compound 1.5 kg per acre, extract 5 grams per acre, every 10 days
[8] = Growth effect, citrus (Table III); assay type: in vivo; conditions: foliar, 4 times in 1 year, chemical compound 3 kg, extract 5 grams
Experimental: (§1) These chemical compounds were tested at rates 0.25 to 3 kg per acre of citrus, strawberries, tomatoes and bananas by themselves to measure (A) fertilizer effect on foliar uptake, (B) growth effect, (C) resistance induction effect. These compounds were then combined with extracts of pseudomonas, subtilis species and actinomyces and applied to the similar set of plants and measured for A, B, and C as above. These extracts were also applied to a similar set of plants and measured for A, B, and C as above.

[9] = Growth effect, bananas (Table III); assay type: in vivo; conditions: every week, foliar, for 6 months, chemical compound 3 kg, extract 5 grams
Experimental: as §1

phytopthora [10] = experiment: Induction of resistance, citrus phytopthora in roots (Table III); assay type: in vivo; conditions: foliar, 4 times in 1 year, chemical compound 3 kg, extract 5 grams
Experimental: as §1

die back = experiment: Induction of resistance, citrus die back (Table III); assay type: in vivo; conditions: foliar, 4 times in 1 year, chemical compound 3 kg, extract 5 grams
Experimental: as §1

[11] = Growth effect, strawberry (Table III); assay type: in vivo; conditions: every 10 days, chemical compound 3 kg, extract 5 grams
Experimental: as §1

leaf disease, botrylis = experiment: Induction of resistance, tomato leaf infection (Table III); assay type: in vivo; conditions: tomatoes, every 10 days, foliar; chemical compound 3 kg, extract 5 grams
Experimental: as §1

phytopthora [12] = experiment: Induction of resistance, tomato phytopthora in roots (Table III); assay type: in vivo; conditions: tomatoes, every 10 days, foliar; chemical compound 3 kg, extract 5 grams
Experimental: as §1

leaf disease = experiment: Induction of resistance, strawberry leaf disease (Table III); assay type: in vivo; conditions: every 10 days, chemical compound 3 kg, extract 5 grams
Experimental: as §1

[13] = Growth effect, tomatoes (Table III); assay type: in vivo; conditions: every 10 days, foliar, chemical compound 3 kg, extract 5 grams
Experimental: as §1

Black Sigatoka [14] = experiment: Induction of resistance, banana Sigatoka (Table III); assay type: in vivo; conditions: bananas, every week, foliar, for 6 months; chemical compound 3 kg, extract 5 grams
Experimental: as §1

[15] = bananas every week for 6 months, foliar, chemical compound 25 grams alone

Compound	infected leaves (early & late blight) (early & late blight) [% leaf infection]	infection of fruits (infection of fruits)	infected leaves [2] [% infection]	infected leaves / leaf infection (leaf infection) [% infection]	infection of leaves (infection of leaves) [% infection]	Results in Root Infection (nematode infection) (nematode) [% nematode infection]	Results in Foliar Infections (Foliar Infections) [% infection]	Results On Black Sigatoka: Leaves at Flowering (Black Sigatoka [3])	Results In Foliar & Root Infections: nematode (nematodes [4])	Results On Nematode Infection (Nematodes [5])	Results In Foliar & Root Infections: phytopthora (phytopthora [6])	Results On Development of Fire Blight (Fire Blight [7]) [% fire blight]	Results In Foliar & Root Infections: foliar infection (foliar infection)	further results
O=C([O-])CC(O)(CC(=O)[O-])C(=O)[O-].O=C([O-])CC(O)(CC(=O)[O-])C(=O)[O-].[Ca+2].[Ca+2].[Ca+2] [calcium citrate]	25	30% infection of fruits	80	85	90									fire blight burn (leaves) (fire blight [1]; in vivo): 20% fire blight burn; mildew (mildew; in vivo): 55% mildew; infection (sigatoka, leaves) (sigatoka; in vivo): 85% infection-all leaves except youngest 3; infection-all leaves except youngest (number of youngest leaves) (sigatoka; in vivo): 85% infection-all leaves except youngest 3
O=[N+]([O-])[O-].O=[N+]([O-])[O-].[Ca+2] [calcium nitrate]						20	20	7 Leaves at Flowering, High Nematode infection	15% foliar infection, 15% phytopthora, 20% nematrode	7 Leaves at Flowering, High Nematode infection	15% foliar infection, 15% phytopthora, 20% nematrode	20	15% foliar infection, 15% phytopthora, 20% nematrode	
O=P(O)(O)O [potassium phosphate]						20	20	7 Leaves at Flowering, High Nematode infection	15% foliar infection, 15% phytopthora, 20% nematrode	7 Leaves at Flowering, High Nematode infection	15% foliar infection, 15% phytopthora, 20% nematrode	18	15% foliar infection, 15% phytopthora, 20% nematrode	
potassium phosphite	35	35% infection of fruits	85	100	85									Growth effect [8]: zero improvement; Growth effect [9]: no increase; Induction of Resistance: phytopthora in roots (phytopthora [10]): zero resistance to phytopthora,; fire blight burn (leaves) (fire blight [1]; apples (2 yr old) 10 days post bud break & 1 week later, foliar, chemical compound 25 grams, extract 5 grams): 25% fire blight burn; Induction of Resistance: die back (die back): die back as usual; Growth effect [11]: no increase; Induction of Resistance: leaf infection (leaf disease, botrylis): 35% leaf infection; mildew (mildew; grapes every 15 days, foliar, chemical compound 25 grams, extract 5 grams): 70% mildew; Induction of Resistance: phytopthora in roots (phytopthora [12]): phytopthora zero control,; Induction of Resistance: leaf disease, infection (leaf disease): suppression, 25% infection; infection (sigatoka, leaves) (sigatoka; [15]): 90%; infection-all leaves except youngest (number of youngest leaves) (sigatoka; [15]): 4; Growth effect [13]: no increase; Induction of Resistance: Sigatoka control, leaves with no symptoms (Black Sigatoka [14]): only 4 youngest leaves
